In US20160346225A1, “METHOD OF PREPARING INGESTIBLE MULTI-SHEET UNIT HAVING PREDETERMINED FUNCTIONS AND COMBINATIONS” (Purdue Research Foundation, priority 2011, published 2016):

Experiments:
[1] = in the dissolution medium; cited from earlier work
[2] = dissolution of griseofulvin from particle-containing polymer films; type: physicochemical; conditions: for dissolution profile as a function of film thickness: FIG. 5D
Excerpt: A 10 micron film can be configured with the film is a single layer of particles that are held together by the polymer sheet, where the particles may or may not be larger in diameter than the film thickness. In one example, a films can be on the order of 100 microns. However, the film can be as thin as roughly the size of the largest particles.

drug release rate from film matrix ([2]; film matrix (HPMC or alginate) vs same type of particles (API) free from polymer, same area of exposure, FIG. 6): accelerated drug release
drug release rate as a function of drug load in the film ([2]; range of drug loading percentages, FIG. 7): increases with drug load
Compound: COC1=CC(=O)C[C@@H](C)[C@]12Oc1c(Cl)c(OC)cc(OC)c1C2=O [griseofulvin]
solubility [1]: poorly-soluble
dissolution of drug from immobilized particles at high drug load ([2]; about 72% (w/w) drug load in the film, FIG. 7): enhanced dissolution of drug from the immobilized particles is still observed
dissolution profile as a function of film thickness ([2]; film thickness increased from 10 microns to 20 microns): initially increase the dissolution profile
dissolution profile as a function of film thickness ([2]; film thickness increased up to 70 microns): significantly decreases the dissolution profile
